Consider six compounds from PMC9736855, “Discovery of 3-Amino-1H-pyrazole-Based Kinase Inhibitors to Illuminate the Understudied PCTAIRE Family” (International Journal of Molecular Sciences, 2022).

“And” between values parts separate entries of the source, which are not always exact repeats. Identical values can stand only once. Like-named read-outs stand apart in the source and are kept apart here.

For one assay, the target named is T1, CAMK2D (Homo sapiens, UniProt Q13557).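 Further: compound tested at 10 µM with 2 µM protein.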
T1 construct: purchased in-house DSF panel (SGC Frankfurt)
T1 sequence (Q13557 11-309): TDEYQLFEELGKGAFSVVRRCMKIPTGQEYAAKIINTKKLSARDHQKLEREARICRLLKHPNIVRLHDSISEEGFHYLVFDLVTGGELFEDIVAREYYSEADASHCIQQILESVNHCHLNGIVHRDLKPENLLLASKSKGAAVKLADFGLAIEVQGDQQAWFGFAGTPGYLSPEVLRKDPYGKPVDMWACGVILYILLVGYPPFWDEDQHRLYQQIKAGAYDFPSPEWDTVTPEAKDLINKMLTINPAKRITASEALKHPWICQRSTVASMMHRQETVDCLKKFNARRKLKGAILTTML
Put plainly: DSF. In kind it is binding.

A further assay has as its target T2, CLK1 (Homo sapiens, UniProt P49759).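 Further: compound tested at 10 µM with 2 µM protein.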
T2 construct: purchased in-house DSF panel (SGC Frankfurt)
Put plainly: DSF. In kind it is binding.

Another assay has as its system RPS6KA1. Put plainly: DSF. In kind it is binding.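 Further: compound tested at 10 µM with 2 µM protein.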
In the next assay the target is T3, AKT3 (Homo sapiens, UniProt Q9Y243).
T3 construct: purchased in-house DSF panel (SGC Frankfurt)
T3 sequence (Q9Y243 148-479): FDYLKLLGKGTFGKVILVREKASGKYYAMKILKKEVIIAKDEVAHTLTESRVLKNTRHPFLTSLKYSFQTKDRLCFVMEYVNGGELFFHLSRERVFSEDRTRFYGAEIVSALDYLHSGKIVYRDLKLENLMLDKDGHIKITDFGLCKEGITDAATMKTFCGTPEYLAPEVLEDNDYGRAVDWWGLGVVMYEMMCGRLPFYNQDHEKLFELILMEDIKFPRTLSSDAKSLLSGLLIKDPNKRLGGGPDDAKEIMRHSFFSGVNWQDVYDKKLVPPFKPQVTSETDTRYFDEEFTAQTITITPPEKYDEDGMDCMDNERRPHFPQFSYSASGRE
Nature of the assay: DSF. In kind it is binding.

The next assay deals with T4, MST4 (Homo sapiens, UniProt Q9P289).
T4 construct: purchased in-house DSF panel (SGC Frankfurt)
T4 sequence (Q9P289 1-300): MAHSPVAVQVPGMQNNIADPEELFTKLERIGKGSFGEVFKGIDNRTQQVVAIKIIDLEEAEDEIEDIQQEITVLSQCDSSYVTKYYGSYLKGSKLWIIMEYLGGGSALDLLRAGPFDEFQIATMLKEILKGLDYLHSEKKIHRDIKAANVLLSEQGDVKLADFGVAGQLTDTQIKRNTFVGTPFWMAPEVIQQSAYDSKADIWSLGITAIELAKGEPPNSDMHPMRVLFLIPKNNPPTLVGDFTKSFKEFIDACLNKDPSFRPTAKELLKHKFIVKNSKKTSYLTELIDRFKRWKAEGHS
Put plainly: DSF. In kind it is binding.

For assay [1], the system named is in-house panel of 89–105 kinases. Put plainly: DSF selectivity screen. In kind it is binding. The source says:
To investigate the selectivity profile of the different series, a differential scanning fluorimetry (DSF) assay was used. This assay offers a rapid and sensitive screening method that determines the denaturation temperature of a protein in absence and presence of a compound. This assay format measures the fluorescence of a dye, which depends on the folding state of the protein. The difference between the melting temperature (ΔTm) in the absence and presence of the compound represents the binding strength to the protein. We used an in-house panel of 89–105 kinases to screen all synthesized inhibitors (Tables S1–S3).
(§1) Measurements were performed in duplicates.

The next assay deals with T5, FGFR2 (Homo sapiens, UniProt P21802).
T5 construct: purchased in-house DSF panel (SGC Frankfurt)
T5 sequence (P21802 458-770): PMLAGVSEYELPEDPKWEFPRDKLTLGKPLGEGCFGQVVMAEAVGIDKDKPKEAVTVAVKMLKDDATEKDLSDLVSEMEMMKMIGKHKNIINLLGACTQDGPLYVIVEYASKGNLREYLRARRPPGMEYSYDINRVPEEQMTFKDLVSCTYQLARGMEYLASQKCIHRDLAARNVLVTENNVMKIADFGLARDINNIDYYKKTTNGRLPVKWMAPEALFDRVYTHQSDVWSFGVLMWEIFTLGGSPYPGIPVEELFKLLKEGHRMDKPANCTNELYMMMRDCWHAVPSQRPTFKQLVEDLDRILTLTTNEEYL
Nature of the assay: DSF. In kind it is binding.

The next assay addresses T6, NEK2 (Homo sapiens, UniProt P51955).
T6 construct: purchased in-house DSF panel (SGC Frankfurt)
T6 sequence (P51955 1-271): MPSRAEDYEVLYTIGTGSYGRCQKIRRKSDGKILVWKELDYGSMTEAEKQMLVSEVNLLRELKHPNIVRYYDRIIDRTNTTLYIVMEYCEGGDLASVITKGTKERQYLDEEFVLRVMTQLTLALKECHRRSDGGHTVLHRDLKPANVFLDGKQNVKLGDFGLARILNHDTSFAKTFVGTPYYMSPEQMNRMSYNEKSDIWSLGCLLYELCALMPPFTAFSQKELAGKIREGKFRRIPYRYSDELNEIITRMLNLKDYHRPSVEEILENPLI
Put plainly: DSF. In kind it is binding. As for the experimental part:
as §1

Another assay addresses T7, DAPK3 (Homo sapiens, UniProt O43293).
T7 construct: purchased in-house DSF panel (SGC Frankfurt)
Put plainly: DSF. In kind it is binding.

In another assay the target is T8, CDK16/Cyclin Y (Homo sapiens, UniProt Q00536).
T8 construct: Full-length kinases were obtained as plasmids cloned in frame with a terminal NanoLuc-fusion; CS1810C178 (CCNY); host or cells: HEK293T
T8 sequence (Q00536 whole entry, the tested form may be a part): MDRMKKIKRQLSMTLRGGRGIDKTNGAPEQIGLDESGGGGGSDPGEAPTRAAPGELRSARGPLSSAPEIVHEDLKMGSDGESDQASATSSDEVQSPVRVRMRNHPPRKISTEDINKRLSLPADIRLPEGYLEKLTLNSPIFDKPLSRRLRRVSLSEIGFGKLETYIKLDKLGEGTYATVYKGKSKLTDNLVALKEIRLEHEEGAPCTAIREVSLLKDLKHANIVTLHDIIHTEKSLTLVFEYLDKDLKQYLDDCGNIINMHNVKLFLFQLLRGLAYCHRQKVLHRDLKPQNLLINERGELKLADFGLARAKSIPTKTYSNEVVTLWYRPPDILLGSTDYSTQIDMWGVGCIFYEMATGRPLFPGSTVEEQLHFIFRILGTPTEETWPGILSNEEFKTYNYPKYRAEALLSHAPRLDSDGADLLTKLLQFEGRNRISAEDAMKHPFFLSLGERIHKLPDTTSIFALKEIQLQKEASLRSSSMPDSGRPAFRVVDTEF
T8 sequence (Q8ND76 2-341 partner limits assumed): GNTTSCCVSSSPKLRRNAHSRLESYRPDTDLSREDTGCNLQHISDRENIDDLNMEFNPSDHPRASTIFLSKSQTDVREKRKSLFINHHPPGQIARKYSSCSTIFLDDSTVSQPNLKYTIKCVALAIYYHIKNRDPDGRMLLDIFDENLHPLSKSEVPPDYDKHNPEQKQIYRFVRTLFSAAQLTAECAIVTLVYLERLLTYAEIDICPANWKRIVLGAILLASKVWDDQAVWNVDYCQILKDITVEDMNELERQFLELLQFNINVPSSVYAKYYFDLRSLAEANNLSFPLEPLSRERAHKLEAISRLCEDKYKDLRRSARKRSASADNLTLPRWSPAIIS
Nature of the assay: NanoBRET. In kind it is cell-based. Put shortly: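 HEK293T cells transiently expressing full-length NanoLuc-fused kinase for 20 h, treated with serially diluted inhibitor plus tracer at its KD,app. Equilibrated 2 h at 37 °C/5% CO2 before reading BRET (450/610 nm). EC50 from tracer displacement by normalized 3-parameter fit.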

Another assay concerns the target T9, MAPK9 (Homo sapiens, UniProt P45984).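 Further: compound tested at 10 µM with 2 µM protein.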
T9 construct: purchased in-house DSF panel (SGC Frankfurt)
Nature of the assay: DSF. In kind it is binding.

A further assay relates to CDK16 and GSK3. Put plainly: proteome-wide CETSA MS. In kind it is cell-based. Conditions: K562 cells, 30 µM, 60 min. As for the experimental part:
To verify whether the substances also lead to stabilization of proteins in the cellular system, proteome-wide CETSA experiments were performed. Therefore, lead structure 1 and some compounds from the second series (21b, 21d, 21e, 21h, and 21i) were selected for this study (Figure 6, Figure S1). While the statistical significance is plotted on the Y-axis, the relative protein amount is shown on the X-axis. […] Based on excellent proteome-wide selectivity identifying CDK16 and GSK3 as the most prominently stabilized kinases, 21d and 21i were selected for further investigations. […] We therefore decided to proceed with a CDK16-specific cellular assay.
Compressed CETSA MS assays, also known as PISA (Proteome Integral Stability Alteration assay), were performed as previously described by Chernobrovkin et. al., with some minor changes. K562 cells were obtained from ATCC. K562 cells were mixed with an equal volume of compound solution, final concentartion of 30 µM, in a buffer (20 mM HEPES, 138 mM NaCl, 5 mM KCl, 2 mM CaCl2, 1 mM MgCl2, pH 7.4). One percent and DMSO was used as a control. Cells were incubated at +37 °C for 60 min. The cell suspension was split into 12 aliquots which were heated at a different temperature between 44 and 66 °C for 3 min. After the heating, the cells were lysed through freeze–thawing them 3 times and the lysed aliquots were pooled together. Cell debris and aggregates were removed through centrifugation (20 min at 30.000× g).

The target of the next assay is T10, MAP2K1 (Homo sapiens, UniProt Q02750).
T10 construct: purchased in-house DSF panel (SGC Frankfurt)
T10 sequence (Q02750 68-361): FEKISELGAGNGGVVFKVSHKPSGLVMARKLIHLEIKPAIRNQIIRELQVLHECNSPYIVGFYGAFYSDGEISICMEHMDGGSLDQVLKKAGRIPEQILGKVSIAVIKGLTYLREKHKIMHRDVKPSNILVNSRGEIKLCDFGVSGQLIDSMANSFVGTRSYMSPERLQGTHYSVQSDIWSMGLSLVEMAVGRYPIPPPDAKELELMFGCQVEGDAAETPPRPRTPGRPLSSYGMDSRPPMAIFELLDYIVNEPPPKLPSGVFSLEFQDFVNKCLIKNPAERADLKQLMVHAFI
Put plainly: DSF. In kind it is binding.

The mark [2] stands for this setting: Figure 7, 11-point dose-response in duplicates, read-out: NanoBRET EC50 ± SEM against CDK16.
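Wherever ΔTm FGFR2 is given: compound tested at 10 µM with 2 µM protein.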

T9 sequence (P45984 1-364): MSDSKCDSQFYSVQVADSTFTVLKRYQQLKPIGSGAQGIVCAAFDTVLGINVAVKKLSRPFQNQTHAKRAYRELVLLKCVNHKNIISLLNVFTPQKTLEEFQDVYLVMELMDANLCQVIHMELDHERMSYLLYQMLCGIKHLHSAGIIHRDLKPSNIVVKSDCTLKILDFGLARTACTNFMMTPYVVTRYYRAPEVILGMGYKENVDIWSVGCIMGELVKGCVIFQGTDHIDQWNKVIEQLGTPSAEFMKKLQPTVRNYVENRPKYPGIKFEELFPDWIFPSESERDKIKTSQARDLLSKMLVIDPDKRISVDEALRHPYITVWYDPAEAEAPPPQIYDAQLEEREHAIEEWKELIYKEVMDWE
T7 sequence (O43293 9-289): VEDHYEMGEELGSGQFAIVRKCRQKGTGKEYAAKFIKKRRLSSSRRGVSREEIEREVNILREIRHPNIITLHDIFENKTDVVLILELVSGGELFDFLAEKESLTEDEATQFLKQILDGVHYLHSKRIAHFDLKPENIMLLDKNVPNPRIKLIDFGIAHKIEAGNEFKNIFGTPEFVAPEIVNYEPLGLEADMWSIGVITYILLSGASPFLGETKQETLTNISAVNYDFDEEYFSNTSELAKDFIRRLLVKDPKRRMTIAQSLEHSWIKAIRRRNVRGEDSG
T2 sequence (P49759 148-484): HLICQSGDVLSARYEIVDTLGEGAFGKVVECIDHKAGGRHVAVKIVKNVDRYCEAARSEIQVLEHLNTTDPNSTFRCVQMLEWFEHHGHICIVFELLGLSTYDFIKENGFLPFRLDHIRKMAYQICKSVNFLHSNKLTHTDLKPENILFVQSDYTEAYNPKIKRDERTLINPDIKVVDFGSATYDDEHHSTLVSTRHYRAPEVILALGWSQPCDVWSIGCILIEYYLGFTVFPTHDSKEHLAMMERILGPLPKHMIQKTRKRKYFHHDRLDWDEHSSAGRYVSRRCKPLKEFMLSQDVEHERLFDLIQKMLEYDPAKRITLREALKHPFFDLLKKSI
Experimental for AKT3: (§2) Recombinant protein kinase domains with a concentration of 2 μM were mixed with a 10 μM compound solution in DMSO, 20 mM HEPES, pH 7.5, and 500 mM NaCl. SYPRO Orange (5000×, Invitrogen) was added as a fluorescence probe (1 µl per mL). Subsequently, temperature-dependent protein unfolding profiles were measured, using the QuantStudio™ 5 realtime PCR machine (Thermo Fisher, Waltham, MA, USA). […] The temperature was raised with a step rate of 3 °C per minute. Data points were analyzed with the internal software (Thermal Shift SoftwareTM Version 1.4, Thermo Fisher) using the Boltzmann equation to determine the inflection point of the transition curve [56]. Differences in melting temperature are given as ΔTm values in °C. Measurements were performed in duplicates.
Experimental for CAMK2D: as §2
Experimental for CLK1: as §2
Experimental for DAPK3: as §2
Experimental for FGFR2: as §2
Experimental for MAP2K1: as §2
Experimental for MAPK9: as §2
Experimental for MST4: as §2
Experimental for RPS6KA1: as §2

Regarding `CC(C)(C)OC(=O)Nc1ccc(CNc2nccc(Nc3cc(C(=O)OC(C)(C)C)[nH]n3)n2)cc1` [43d, tert-butyl 3-((2-((4-((tert-butoxycarbonyl)amino)benzyl)amino)pyrimidin-4-yl)amino)-1H-pyrazole-5-carboxylate], at CAMK2D, the “ΔTm CAMK2D” value was -0.1 °C. Also, the “ΔTm CLK1” value at CLK1 was -0.5 °C. In addition, the “ΔTm RPS6KA1” value in the assay on RPS6KA1 was found to be 0.2 °C. Also, on AKT3, the “ΔTm AKT3” value is 0.5 °C. On MST4, the “ΔTm MST4” value is -0.1 °C. The “kinases beside CDK16 with DSF shift >5 °C (potential off-targets)” value in assay [1] was 1–2 and 2. At FGFR2, the “ΔTm FGFR2” value turned out to be 0.3 °C. For the same compound, the “ΔTm NEK2” value on NEK2 was found to be 2.0 °C. Moreover, at DAPK3, the “ΔTm DAPK3” value worked out at 0.3 °C. Also, the EC50 at CDK16/Cyclin Y (setting [2]) is 33 nM and 33.4 nM. The “ΔTm MAPK9” value on MAPK9 is -1.4 °C.

Take `CN[C@@H]1C[C@H]2O[C@@](C)([C@@H]1OC)n1c3ccccc3c3c4c(c5c6ccccc6n2c5c31)C(=O)NC4` [staurosporine, reference compound]: the “ΔTm NEK2” value on NEK2 is 3.3 °C.

Turning to `CC(C)OC(=O)c1cc(Nc2ccnc(NCc3ccc(NC(=O)OC(C)(C)C)cc3)n2)n[nH]1` [42d, isopropyl 3-((2-((4-((tert-butoxycarbonyl)amino)benzyl)amino)pyrimidin-4-yl)amino)-1H-pyrazole-5-carboxylate], the “ΔTm CAMK2D” value on CAMK2D was -0.4 °C. For the same compound, the “ΔTm CLK1” value at CLK1 was determined as 0.0 °C. Moreover, in the assay on RPS6KA1, the “ΔTm RPS6KA1” value was -0.3 °C. On AKT3, the “ΔTm AKT3” value is 0.6 °C. Also, the “ΔTm MST4” value on MST4 was found to be 0.1 °C. The “kinases beside CDK16 with DSF shift >5 °C (potential off-targets)” value in [1] is 1–2 and 1. On FGFR2, the “ΔTm FGFR2” value was found to be 0.1 °C. Besides, the “ΔTm NEK2” value on NEK2 is -1.4 °C. At DAPK3, the “ΔTm DAPK3” value turned out to be 0.1 °C. Besides, the EC50 at CDK16/Cyclin Y (setting [2]) is 44 nM. For the same compound, the “ΔTm MAPK9” value on MAPK9 is -0.7 °C.

As for `COC(=O)c1cc(Nc2ccnc(NCCOCCNC(=O)OC(C)(C)C)n2)[nH]n1` [21d, methyl 5-((2-((2-(2-((tert-butoxycarbonyl)amino)ethoxy)ethyl)amino)pyrimidin-4-yl)amino)-1H-pyrazole-3-carboxylate], the “stabilization in CETSA MS” value in the assay on CDK16 and GSK3 is “stabilization of CDK16 and GSK3”. Further, at CAMK2D, the “ΔTm CAMK2D” value came out at 0.8 °C. Further, the “ΔTm CLK1” value on CLK1 is 1.8 °C. In addition, the “ΔTm RPS6KA1” value in the assay with RPS6KA1 was 0.5 °C. Also, on AKT3, the “ΔTm AKT3” value came out at 0.3 °C. Moreover, the “ΔTm MST4” value at MST4 was determined as 0.7 °C. In addition, the “ΔTm MAP2K1” value at MAP2K1 was found to be 0.7 °C. Besides, the “ΔTm FGFR2” value on FGFR2 was found to be 1.5 °C. The “ΔTm DAPK3” value at DAPK3 stood at 3.3 °C. For the same compound, on CDK16/Cyclin Y (setting [2]), the EC50 came to 1370 ± 306 nM. In addition, the “ΔTm MAPK9” value on MAPK9 amounted to 1.1 °C.

Consider `N#CCc1ccc(Nc2nccc(Nc3cc(C4CC4)[nH]n3)n2)cc1` [compound 1, reference compound], for which the “stabilization in CETSA MS” value in the assay on CDK16 and GSK3 was “stabilization of CDK16 and GSK3”. Further, at CAMK2D, the “ΔTm CAMK2D” value worked out at 4.5 °C. In addition, the “ΔTm CLK1” value at CLK1 worked out at 12.2 °C. The “ΔTm RPS6KA1” value in the assay on RPS6KA1 was 5.1 °C. The “ΔTm MST4” value at MST4 came to 7.1 °C. In addition, the “ΔTm MAP2K1” value on MAP2K1 is 1.4 °C. The “ΔTm FGFR2” value at FGFR2 is 5.9 °C. At DAPK3, the “ΔTm DAPK3” value was 9.7 °C. Also, the EC50 at CDK16/Cyclin Y (CDK family profiling, Table S5, read-out: NanoBRET EC50 ± SEM CDK16/Cyclin Y) is 14.6 ± 5.5 nM. Also, at MAPK9, the “ΔTm MAPK9” value was determined as 6.5 °C.

Turning to `COC(=O)c1cc(Nc2ccnc(NCc3ccc(NC(=O)OC(C)(C)C)cc3)n2)[nH]n1` [21i, methyl 5-((2-((4-((tert-butoxycarbonyl)amino)benzyl)amino)pyrimidin-4-yl)amino)-1H-pyrazole-3-carboxylate], the “stabilization in CETSA MS” value in the assay with CDK16 and GSK3 is “stabilization of CDK16 and GSK3”. At CAMK2D, the “ΔTm CAMK2D” value is 0.6 °C. Moreover, at CLK1, the “ΔTm CLK1” value is 1.3 °C. For the same compound, the “ΔTm RPS6KA1” value in the assay on RPS6KA1 stood at 1.0 °C. For the same compound, the “ΔTm AKT3” value at AKT3 was -0.3 °C. The “ΔTm MST4” value at MST4 is -0.7 °C. Also, the “Kinases with shifts > 5°C” value in [1] (number of kinases of the DSF panel) was 4–9. Moreover, the “ΔTm MAP2K1” value at MAP2K1 was -0.5 °C. In addition, at FGFR2, the “ΔTm FGFR2” value stood at 0.2 °C. Further, the “ΔTm DAPK3” value at DAPK3 is -0.6 °C. Moreover, the EC50 at CDK16/Cyclin Y (setting [2]) stood at 380 nM. In addition, the “ΔTm MAPK9” value at MAPK9 stood at 1.7 °C.
